Measured values from PubChem BioAssay AID330 (DTP/NCI, 2004).
“And” between values parts separate entries of the source, which are not always exact repeats. Equal entries are not always repeated. Inconclusive results and toxic doses are left out.

System: P388 leukemia ip, CD2F1 mice, survival T/C
Test: NCI In Vivo Anticancer Drug Screen. Data for tumor model P388 Leukemia (intraperitoneal) in CD2F1 (CDF1) mice
Conditions: endpoint: median survival time, higher = longer survival
How it was run: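 Mice carrying the transplanted tumor received test compound or vehicle. Survival was recorded in each group, and the value is the treated-group measurement divided by that of the vehicle-treated control group.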

[1] = dose: 50.0 mg/kg/injection, schedule: Q04DX003 (ip), vehicle: distilled water + Tween-80
[2] = dose: 60.0 mg/kg/injection, schedule: Q01DX005 (ip), vehicle: saline with Tween-80
[3] = dose: 120.0 mg/kg/injection, schedule: Q01DX005 (ip), vehicle: saline with Tween-80

With `CS(C)=O` the T/C (dose: 93.75 mg/kg/injection, schedule: Q01DX009 (ip), vehicle: saline) was 109 % of control, the T/C (dose: 187.5 mg/kg/injection, schedule: Q01DX009 (ip), vehicle: saline) was 107 % of control and the T/C (dose: 375.0 mg/kg/injection, schedule: Q01DX009 (ip), vehicle: saline) was 98 % of control. The T/C (dose: 750.0 mg/kg/injection, schedule: Q01DX009 (ip), vehicle: saline) was 109 % of control, the T/C (dose: 1500.0 mg/kg/injection, schedule: Q01DX009 (ip), vehicle: saline) was 104 % of control and the T/C (dose: 1.5 grams/kg/injection, schedule: Q01DX001 (ip), vehicle: saline) was 99 % of control and 101 % of control. The T/C (dose: 1.5 grams/kg/injection, schedule: Q01DX009 (ip), vehicle: saline) was 101 % of control and 109 % of control, the T/C (dose: 2.0 % in 0.5 ml injection vol, schedule: Q01DX009 (ip), vehicle: water) was 103 % of control and 95 % of control and the T/C (dose: 3000.0 mg/kg/injection, schedule: Q01DX001 (ip), vehicle: water) was 104 % of control. For the same molecule, the T/C (dose: 3000.0 mg/kg/injection, schedule: Q01DX009 (ip), vehicle: saline) was 95 % of control, the T/C (dose: 3.0 grams/kg/injection, schedule: Q01DX001 (ip), vehicle: saline) was 104 % of control and 106 % of control and the T/C (dose: 3.0 grams/kg/injection, schedule: Q01DX009 (ip), vehicle: saline) was 96 % of control. For the same molecule, the T/C (dose: 3.1 grams/kg/injection, schedule: Q01DX009 (ip), vehicle: water) was 101 % of control, the T/C (dose: 4.0 % in 0.5 ml injection vol, schedule: Q01DX009 (ip), vehicle: water) was 112 % of control and 94 % of control and the T/C (dose: 6000.0 mg/kg/injection, schedule: Q01DX001 (ip), vehicle: water) was 99 % of control. The T/C (dose: 6.0 grams/kg/injection, schedule: Q01DX001 (ip), vehicle: saline) was 95 % of control and 98 % of control, the T/C (dose: 6.0 grams/kg/injection, schedule: Q01DX009 (ip), vehicle: saline) was 100 % of control and 106 % of control and the T/C (dose: 6.2 grams/kg/injection, schedule: Q01DX009 (ip), vehicle: water) was 97 % of control. The T/C (dose: 6.25 % in 0.5 ml injection vol, schedule: Q01DX009 (ip), vehicle: water) was 103 % of control, the T/C (dose: 8.0 % in 0.5 ml injection vol, schedule: Q01DX009 (ip), vehicle: water) was 103 % of control and 112 % of control and the T/C (dose: 12000.0 mg/kg/injection, schedule: Q01DX001 (ip), vehicle: water) was 101 % of control. For the same molecule, the T/C (dose: 12.0 grams/kg/injection, schedule: Q01DX001 (ip), vehicle: saline) was 104 % of control and 96 % of control, the T/C (dose: 12.5 % in 0.5 ml injection vol, schedule: Q01DX009 (ip), vehicle: water) was 110 % of control and the T/C (dose: 12.5 grams/kg/injection, schedule: Q01DX009 (ip), vehicle: water) was 108 % of control. For the same molecule, the T/C (dose: 16.0 % in 0.5 ml injection vol, schedule: Q01DX009 (ip), vehicle: water) was 102 % of control and 105 % of control and 112 % of control, the T/C (dose: 24.0 grams/kg/injection, schedule: Q01DX001 (ip), vehicle: saline) was 37 % of control and 39 % of control and the T/C (dose: 25.0 % in 0.5 ml injection vol, schedule: Q01DX009 (ip), vehicle: water) was 117 % of control. The T/C (dose: 32.0 % in 0.5 ml injection vol, schedule: Q01DX009 (ip), vehicle: water) was 111 % of control and 121 % of control.

In the case of `COc1cc2c(cc1OC)C(CO)C1c3cc4c(cc3CCN1C2)OCO4` (stereo unspecified), the T/C [1] is reported as 98 % of control, the T/C (dose: 100.0 mg/kg/injection, schedule: Q04DX003 (ip), vehicle: distilled water + Tween-80) is reported as 98 % of control and the T/C (dose: 200.0 mg/kg/injection, schedule: Q04DX003 (ip), vehicle: distilled water + Tween-80) is reported as 96 % of control. The T/C (dose: 400.0 mg/kg/injection, schedule: Q04DX003 (ip), vehicle: distilled water + Tween-80) was 96 % of control.

With `CCCOC(=O)/C=C(\F)C(=O)OCCC` the T/C (dose: 6.25 mg/kg/injection, schedule: Q04DX002 (ip), vehicle: saline with Tween-80) was 110 % of control, the T/C (dose: 12.5 mg/kg/injection, schedule: Q04DX002 (ip), vehicle: saline with Tween-80) was 116 % of control and the T/C (dose: 25.0 mg/kg/injection, schedule: Q04DX002 (ip), vehicle: saline with Tween-80) was 95 % of control.

For `O=[N+]([O-])c1ccc(N=Nc2ccc(N(CCO)CCO)cc2)cc1`, the T/C (dose: 60.0 mg/kg/injection, schedule: Q01DX005 (ip), vehicle: suspension in saline) was 95 % of control, the T/C (dose: 120.0 mg/kg/injection, schedule: Q01DX005 (ip), vehicle: suspension in saline) was 97 % of control and the T/C (dose: 240.0 mg/kg/injection, schedule: Q01DX005 (ip), vehicle: suspension in saline) was 98 % of control.

In the case of `c1nc(N2CCCCC2)c2c3c(sc2n1)CCCC3`, the T/C (dose: 50.0 mg/kg/injection, schedule: Q01DX005 (ip), vehicle: saline with Tween-80) is reported as 100 % of control, the T/C (dose: 100.0 mg/kg/injection, schedule: Q01DX005 (ip), vehicle: saline with Tween-80) is reported as 91 % of control and the T/C (dose: 200.0 mg/kg/injection, schedule: Q01DX005 (ip), vehicle: saline with Tween-80) is reported as 96 % of control.

`CC(C)c1nccn1Cc1ccc(Cl)cc1Cl` was tested, and the T/C [2] was 88 % of control and the T/C [3] was 99 % of control.

With `CCOC(=O)Nc1cc(Cl)c([N+](=O)[O-])c([N+](=O)[O-])n1` the T/C (dose: 100.0 mg/kg/injection, schedule: Q04DX002 (ip), vehicle: saline) was 101 % of control, the T/C (dose: 200.0 mg/kg/injection, schedule: Q04DX002 (ip), vehicle: saline) was 103 % of control and the T/C (dose: 400.0 mg/kg/injection, schedule: Q04DX002 (ip), vehicle: saline) was 110 % of control.

`COc1ccc([N+](=O)[O-])cc1C[S+](C)C` was tested, and the T/C (dose: 6.25 mg/kg/injection, schedule: Q01DX009 (ip), vehicle: Klucel (hydroxypropylcellulose) (HPC)) was 108 % of control, the T/C (dose: 12.5 mg/kg/injection, schedule: Q01DX009 (ip), vehicle: Klucel (hydroxypropylcellulose) (HPC)) was 107 % of control and the T/C (dose: 25.0 mg/kg/injection, schedule: Q01DX009 (ip), vehicle: Klucel (hydroxypropylcellulose) (HPC)) was 112 % of control.

With `O=[n+]1c2c(n([O-])c3cc(Cl)c(Cl)cc31)CCC2` the T/C [2] was 95 % of control and the T/C [3] was 95 % of control.

For `C=CCSC(=NC#N)SC`, the T/C (dose: 3.12 mg/kg/injection, schedule: Q01DX005 (ip), vehicle: Klucel (hydroxypropylcellulose) (HPC)) was 101 % of control, the T/C (dose: 6.25 mg/kg/injection, schedule: Q01DX005 (ip), vehicle: Klucel (hydroxypropylcellulose) (HPC)) was 101 % of control and the T/C (dose: 12.5 mg/kg/injection, schedule: Q01DX005 (ip), vehicle: Klucel (hydroxypropylcellulose) (HPC)) was 107 % of control.

With `O=C1NC(=O)C2(CCCc3c([N+](=O)[O-])cccc32)N1` (stereo unspecified) the T/C (dose: 50.0 mg/kg/injection, schedule: Q01DX009 (ip), vehicle: saline with Tween-80) was 97 % of control, the T/C (dose: 100.0 mg/kg/injection, schedule: Q01DX009 (ip), vehicle: saline with Tween-80) was 93 % of control and the T/C (dose: 200.0 mg/kg/injection, schedule: Q01DX009 (ip), vehicle: saline with Tween-80) was 90 % of control.

With `OCC1(OC2OC(CF)C(O)C(O)C2O)OC(CF)C(O)C1O` (stereo unspecified) the T/C (dose: 60.0 mg/kg/injection, schedule: Q01DX005 (ip), vehicle: saline) was 102 % of control and the T/C (dose: 120.0 mg/kg/injection, schedule: Q01DX005 (ip), vehicle: saline) was 101 % of control.

For `O=C(Oc1cccc2cccnc12)c1ccc2ccccc2n1`, the T/C (dose: 100.0 mg/kg/injection, schedule: Q04DX002 (ip), vehicle: saline with Tween-80) was 100 % of control and the T/C (dose: 200.0 mg/kg/injection, schedule: Q04DX002 (ip), vehicle: saline with Tween-80) was 96 % of control.

In the case of `COc1cccc2c1C(=O)c1c(O)c3c(c(O)c1C2=O)CC(O)(C(C)=O)CC3OC1CC(OC(=O)c2ccc([N+](=O)[O-])cc2)C(OC(=O)c2ccc([N+](=O)[O-])cc2)C(COC(=O)c2ccc([N+](=O)[O-])cc2)O1` (stereo unspecified), the T/C (dose: 3.13 mg/kg/injection, schedule: Q04DX003 (ip), vehicle: distilled water + Tween-80) is reported as 100 % of control and 101 % of control, the T/C (dose: 6.25 mg/kg/injection, schedule: Q04DX003 (ip), vehicle: distilled water + Tween-80) is reported as 100 % of control and 99 % of control and the T/C (dose: 12.5 mg/kg/injection, schedule: Q04DX003 (ip), vehicle: distilled water + Tween-80) is reported as 104 % of control. For the same molecule, the T/C (dose: 25.0 mg/kg/injection, schedule: Q04DX003 (ip), vehicle: distilled water + Tween-80) was 102 % of control and 100 % of control and the T/C [1] was 95 % of control.

In the case of `COc1ccc2nc3cc(Cl)ccc3c(Nc3ccc(O)c(CN(CCCl)CCCl)c3)c2c1`, the T/C (dose: 0.06 mg/kg/injection, schedule: Q01DX009 (ip), vehicle: saline with Tween-80) is reported as 98 % of control, the T/C (dose: 0.09 mg/kg/injection, schedule: Q01DX009 (ip), vehicle: saline with Tween-80) is reported as 89 % of control and the T/C (dose: 0.44 mg/kg/injection, schedule: Q01DX009 (ip), vehicle: saline) is reported as 150 % of control. For the same molecule, the T/C (dose: 0.6 mg/kg/injection, schedule: Q01DX009 (ip), vehicle: saline with Tween-80) was 154 % of control, the T/C (dose: 0.66 mg/kg/injection, schedule: Q01DX009 (ip), vehicle: saline) was 160 % of control and the T/C (dose: 1.0 mg/kg/injection, schedule: Q01DX009 (ip), vehicle: saline) was 155 % of control. The T/C (dose: 1.5 mg/kg/injection, schedule: Q01DX009 (ip), vehicle: saline) was 175 % of control.

In the case of `CC(SC(C)(C)C)C(=O)SC(C)(C)C` (stereo unspecified), the T/C (dose: 100.0 mg/kg/injection, schedule: Q04DX003 (ip), vehicle: Klucel (hydroxypropylcellulose) (HPC)) is reported as 102 % of control, the T/C (dose: 200.0 mg/kg/injection, schedule: Q04DX003 (ip), vehicle: Klucel (hydroxypropylcellulose) (HPC)) is reported as 103 % of control and the T/C (dose: 400.0 mg/kg/injection, schedule: Q04DX003 (ip), vehicle: Klucel (hydroxypropylcellulose) (HPC)) is reported as 105 % of control.
